Compared with `COc1ccccc1-n1c(C)nnc1SCC(=O)O`, `CCc1ccccc1OCC(=O)O` is lower in melting point: 169 to 171 °C for the first, 123 to 127 °C for the second.

First: Cc1cccc(N2CCN(CCN)CC2)c1C
Second: CN1CCN(c2ccc(N)cn2)CC1
The melting point of the first is lower: 60 to 62 °C for the first, 109 to 111 °C for the second.

First: CCCCOc1ccc(-c2nnc(CCl)o2)cc1
Second: CCc1ccc(-c2cnnc(N)n2)cc1
The melting point of the first is lower: 77 to 79 °C for the first, 248 to 250 °C for the second.

First: NNC(=O)Cn1cnc2ccccc21
Second: Cn1c(NCCO)nc2ccccc21
The melting point of the first is higher: 108 to 110 °C for the first, 75 to 77 °C for the second.

First: CC(C)CCC1CCC(=O)NC1=O (configuration not stated)
Second: CC(C)(C)C1CCc2[nH]c(=O)sc2C1 (configuration not stated)
The melting point of the first is lower: 117 to 119 °C for the first, 205 to 207 °C for the second.

First: Nc1cc(-c2cccs2)nn1-c1ccccc1
Second: Clc1ccc(NCc2ccccc2)cc1
The melting point of the first is higher: 121 to 123 °C for the first, 47 to 49 °C for the second.

First: N#CCC(=O)Nc1ccc(S(N)(=O)=O)cc1
Second: N#Cc1ccc(S(N)(=O)=O)cc1C(F)(F)F
The melting point of the first is higher: 215 to 217 °C for the first, 195 to 197 °C for the second.

First: N#Cc1ccc(CCC(=O)O)cc1
Second: Cc1ccc(CCCCC(=O)O)cc1
The melting point of the first is higher: 137 to 139 °C for the first, 75 to 77 °C for the second.

First: CN(C)S(=O)(=O)c1c(Cl)nc2ccccn12
Second: Cn1ccnc1C(=O)c1cc(S)nc2ccccc12
The melting point of the first is lower: 109 to 111 °C for the first, 250 to 252 °C for the second.

Compared with `CCCNc1ccc(CN2CCN(C)CC2)cn1`, `Nc1ncc2c(n1)CCN(Cc1ccccc1)C2` is higher in melting point: 69 to 71 °C for the first, 179 to 181 °C for the second.

First: O=C(O)c1cccnc1OCCO
Second: O=C(O)c1cccnc1Oc1cccc(Br)c1
The melting point of the first is higher: 196 to 198 °C for the first, 167 to 169 °C for the second.

First: O=C(O)c1scnc1C1CC1
Second: Nc1nc(C2CC2)ns1
The melting point of the first is higher: 204 to 206 °C for the first, 144 to 146 °C for the second.

First: N#Cc1sc(-c2cccc(Cl)c2)cc1N
Second: Nc1cc(-c2cccc(Cl)c2)nn1CCO
The melting point of the first is higher: 190 to 192 °C for the first, 146 to 148 °C for the second.

Compared with `COC(=O)C(=O)CC(=O)c1ccc(OC)cc1`, `O=C(O)c1ccc(OCC(F)(F)F)cc1` is higher in melting point: 104 to 106 °C for the first, 200 to 202 °C for the second.

Compared with `NC(CCO)c1ccc(F)cc1` (configuration not stated), `CC(C)(C(=O)O)c1ccc(F)cc1` is higher in melting point: 67 to 69 °C for the first, 89 to 91 °C for the second.

First: Cc1ccc(-c2noc3nc(C)cc(C(=O)O)c23)cc1
Second: Cc1ccc(C2(C)NC(=O)N(CC(=O)O)C2=O)cc1 (configuration not stated)
The melting point of the first is higher: 261 to 263 °C for the first, 206 to 208 °C for the second.

Compared with `NC(=O)c1cncc(O)c1`, `COc1ccc(O)c(C(N)=O)c1` is lower in melting point: 249 to 251 °C for the first, 151 to 153 °C for the second.

First: O=c1[nH]c(Nc2ccccc2)cc2ccccc12
Second: c1ccc(OCc2nc3ccccc3[nH]2)cc1
The melting point of the first is higher: 191 to 193 °C for the first, 163 to 165 °C for the second.

First: NCc1ccc(C(=O)N2CCNC(=O)C2)cc1
Second: NC(=O)CNC(=O)c1ccc(O)cc1
The melting point of the first is lower: 143 to 145 °C for the first, 264 to 266 °C for the second.

Compared with `CC1CC(C)CN(S(=O)(=O)Cl)C1` (configuration not stated), `Cc1cc(C)c(C)c(S(=O)(=O)N2CCC(C(=O)O)CC2)c1C` is higher in melting point: 41 to 43 °C for the first, 107 to 109 °C for the second.

Compared with `COc1ccc2cc(C=CC#N)ccc2c1`, `CCn1c2ccccc2c2cc(N=C=S)ccc21` is lower in melting point: 124 to 126 °C for the first, 118 to 120 °C for the second.

First: O=C(O)c1cc(Br)cc(Cl)c1O
Second: O=C(O)c1cc(S)ccc1Br
The melting point of the first is higher: 207 to 209 °C for the first, 146 to 148 °C for the second.

First: Nc1cc(Cl)c(NC(=O)c2ccncc2)c(Cl)c1
Second: CC(=O)c1ccc(Cl)c(F)c1
The melting point of the first is higher: 233 to 235 °C for the first, 39 to 41 °C for the second.

First: O=C(O)/C=C/c1cn(Cc2ccccc2Cl)nc1-c1ccccc1
Second: CC1Cc2ccccc2N1c1ccccc1C(=O)O (configuration not stated)
The melting point of the first is higher: 148 to 150 °C for the first, 124 to 126 °C for the second.

`CN(C)C=C(Br)C=O` and `CCCOc1ccc(Br)cc1C=O` cannot be ordered by melting point: 48 to 50 °C for the first, 47 to 49 °C for the second.

First: COc1cccc(NCc2nnc3n2CCCCC3)c1
Second: Cc1ccsc1C(=O)Nc1ccc2c(c1)CCCN2
The melting point of the first is higher: 176 to 180 °C for the first, 135 to 137 °C for the second.

`Cc1cc(C)c(C)c(S(N)(=O)=O)c1C` and `COc1cc(S(N)(=O)=O)ccc1[N+](=O)[O-]` fall in the same range of melting point: 149 to 151 °C for the first, 149 to 151 °C for the second.

Compared with `O=C(O)CCc1nnc[nH]1`, `Cc1cc(C(=O)O)[nH]c(=O)n1` is higher in melting point: 127 to 129 °C for the first, 209 to 211 °C for the second.

Compared with `Nc1nc(-c2ccc3c(c2)CCC(=O)N3)cs1`, `Cc1nc(-c2cccc(NC(=O)OCC(F)(F)F)c2)cs1` is lower in melting point: 248 to 250 °C for the first, 94 to 96 °C for the second.

`OC1CCc2c(Cl)cccc21` (configuration not stated) and `NC1CCN(c2ccc(Cl)c(F)c2)C1=O` (configuration not stated) fall in the same range of melting point: 69 to 71 °C for the first, 69 to 71 °C for the second.

Compared with `Cc1cc2n(n1)C(=O)C(C)C(=O)N2` (configuration not stated), `CC1(C)OC(=O)C(=Cc2ccc(I)o2)C(=O)O1` is lower in melting point: 288 to 290 °C for the first, 124 to 126 °C for the second.

First: FC(F)(F)c1cc(Cl)nc(-c2cccnc2)n1
Second: NNc1ncnc2c1oc1ccccc12
The melting point of the first is lower: 114 to 116 °C for the first, 232 to 234 °C for the second.

First: O=c1[nH]c(CNCC2CCCO2)nc2ccccc12 (configuration not stated)
Second: O=C(O)C1CCCN1S(=O)(=O)c1ccc(Cl)s1 (configuration not stated)
The melting point of the first is higher: 128 to 132 °C for the first, 44 to 46 °C for the second.

Compared with `NCCCN1CCCC(C(N)=O)C1` (configuration not stated), `O=S(=O)(c1ccc(F)cc1)N1CCNCC1` is higher in melting point: 71 to 73 °C for the first, 112 to 114 °C for the second.

Compared with `O=C(NC=C(Cl)Cl)c1ccc(F)cc1`, `CC(Cl)C(=O)c1ccc(Br)cc1` (configuration not stated) is lower in melting point: 69 to 71 °C for the first, 54 to 56 °C for the second.

First: O=C(O)C(NCC(F)(F)F)c1cc(Br)cs1 (configuration not stated)
Second: O=[N+]([O-])c1cc([N+](=O)[O-])c(Br)cc1F
The melting point of the first is higher: 178 to 180 °C for the first, 92 to 94 °C for the second.

— a melting point compilation (Tetko et al.)
